Key:
[1] = tested on: pigment epithelium of the rat's eye; conditions: higher compound dose given for three months; cited from earlier work
[2] = in vivo; cited from earlier work
Aβ peptide in CSF = conditions: cited from earlier work
[3] = phase I clinical trials; cited from earlier work
[4] = tested on: CSF Aβ peptide concentrations; conditions: sustained and dose-dependent manner; cited from earlier work
[5] = repeated doses up to 200 mg, phase I clinical trial; cited from earlier work
[6] = tested on: Aβ peptide levels in the CSF and plasma; conditions: nonhuman primates; cited from earlier work
Recombinant CatD = Recombinant CatD (Homo sapiens (Human), UniProt P07339); assay: In vitro enzymatic Cathepsin D (CatD) FRET assay; assay type: biochemical; conditions: pH 3.5, 1 h pre-incubation, read-out: Cat D Enzyme IC50
Procedure: In Vitro Enzymatic Cathepsin D (CatD) FRET Assay Recombinant CatD was expressed in CHO cells. The assay buffer for CatD was 0.05 M citrate pH 3.5, 10% DMSO final, 5 mM CHAPS. The CatD enzyme (9 nM) was pre-incubated for one hour with inhibitors, typically in about luL of DMSO according to a serial dilution, is added thereto. The assays was effectively started by the addition of different FRET substrates (20 nM for CatD) and the combination was incubated for one hour. The FRET assay was terminated with by addition of tris buffer, which raises the pH to neutrality, and the fluorescence was determined. The FRET substrate was a peptide with commercially available fluorophore and quencher, on opposite sides of the CatD cleavage site. The CatD substrate peptide sequence was based on sequence #1 of Table 1 from Gulnik et al., FEBS Lett. 413(2):379-384 (1997). Proteolytic cleavage of the FRET substrate released quenching of fluorescence (CatD excitation 500 nm and emission 580 nm). The in vitro CatD FRET assay data for each of the Examples is provided in Table 2, conducted by the first procedure described above. […] Thus, with this surprising selectivity profile, the compounds provided herein are believed to minimize, reduce or completely eliminate any risk of retinal atrophy and abnormal development of the eye and of the retinal pigmented epithelium as it relates to the normal function and activity of CatD.

BACE1 [7] = target: T1, BACE1 (Homo sapiens (Human), UniProt P56817); assay: In vitro BACE1 cell-based assay (Aβ40 in conditioned medium, HTRF); conditions: Aβ40 in conditioned medium of cells stably expressing APP, 24 h
Procedure: In Vitro BACE1 Cell-Based Assay
The cell-based assay measures inhibition or reduction of Aβ40 in conditioned medium of test compound treated cells expressing amyloid precursor protein. Cells stably expressing Amyloid Precursor Protein (APP) were plated at a density of 45K cells/well in 384 well plates (Corning/BioCoat 354663). The test compounds were then added to cells in 22-point dose response concentrations with the starting concentration being 62.5 μM. The compounds were diluted from stock solutions in DMSO and the final DMSO concentration of the test compounds on cells was 0.625%. The cells were cultivated overnight at 37° C. and 5% CO2 in DMEM supplemented with 10% FBS. After 24 h of incubation with the test compounds, the conditioned media was collected and the Aβ40 levels were determined using HTRF (Homogeneous Time Resolved Fluorescence). The IC50 of the compound was calculated from the percent of control or percent inhibition of Aβ 40 as a function of the concentration of the test compound.
The HTRF to detect Aβ40 was performed in 384 well plates (Costar 3658). The antibody pair that were used to detect Aβ 40 from cell supernatants were ConfAb40 antibody (Amgen in-house) and biotinylated 6E10 (BIOLEGEND). As an alternative to ConfAb40, a commercially available antibody, Anti-beta Amyloid 1-40 antibody [BDI350] from Abcam, Cambridge, Mass. 02139-1517 (Product code: ab20068), may be used in this assay. The concentrations were 0.35 μg/mL of ConfAb40 antibody and 1.33 μg/mL of 6E10-biotinylated antibody, as well as 4.5 μg/mL of Streptavidin Allophycocyanin Conjugate (ThermoFisher Scientific) in HTRF Buffer (1M Hepes pH 7.5, 1M NaCL, 1% BSA, 0.5% Tween 20).
The conditioned media was incubated with above antibodies and Streptavidin Allophycocyanin Conjugate for 30-60 minutes at 23° C. The final readout was performed on Envision from PerkinElmer.
Target sequence in this assay (P56817 46-501, species assumed): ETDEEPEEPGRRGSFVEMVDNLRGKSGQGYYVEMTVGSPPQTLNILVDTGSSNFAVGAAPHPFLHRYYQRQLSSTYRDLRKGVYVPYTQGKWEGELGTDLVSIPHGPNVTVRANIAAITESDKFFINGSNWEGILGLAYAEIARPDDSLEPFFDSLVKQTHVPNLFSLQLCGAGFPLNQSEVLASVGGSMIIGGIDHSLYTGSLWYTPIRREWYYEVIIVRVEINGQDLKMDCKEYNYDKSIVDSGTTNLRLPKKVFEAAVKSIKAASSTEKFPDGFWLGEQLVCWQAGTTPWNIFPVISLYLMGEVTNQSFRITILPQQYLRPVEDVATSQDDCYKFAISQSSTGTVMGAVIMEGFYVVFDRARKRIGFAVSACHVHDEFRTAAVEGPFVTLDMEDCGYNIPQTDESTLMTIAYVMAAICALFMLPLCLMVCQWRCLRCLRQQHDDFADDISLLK

human recombinant BACE2 = human recombinant BACE2 (Homo sapiens (Human), UniProt Q9Y5Z0); assay: In vitro enzymatic BACE2 FRET assay; assay type: biochemical; conditions: pH 4.5, 1 h pre-incubation, read-out: BACE2 Enzyme IC50
Procedure: (§1) In Vitro Enzymatic BACE1 and BACE2 FRET (Fluorescence Resonance Energy Transfer) Assays
(§2) The cDNAs for both human recombinant BACE1 and 2 with C-terminal 6-His Tags were cloned into transient protein expression vectors, which were subsequently transfected into mammalian cell lines. These recombinant proteins were further purified using Ni-NTA affinity chromatography (Qiagen). The assay buffer used in these screens was 0.05 M acetate, pH 4.5, 8% DMSO final, 100 μM genapol (which is a nonionic detergent, below its Critical Micelle Concentration). The β-secretase enzyme (0.02 nM for BACE1 and 0.64 nM for BACE2), which was pre-incubated for one hour with the test compound, typically in about luL of DMSO according to a serial dilution, was added thereto. The assay was effectively started by the addition of FRET substrate (50 nM) and the combination was incubated for one hour. The FRET assay was terminated by the addition of tris buffer, which raised the pH to neutrality, and the fluorescence was determined. The FRET substrate was a peptide with commercially available fluorophore and quencher, on opposite sides of the BACE cleavage site. The specific FRET substrate used in this assay was made by Amgen in-house. Commercially available FRET substrates, for example, the FRET substrate offered with the BACE1 FRET Assay Kit sold by ThermoFisher Scientific (Catalog Number P2985), may be used in this assay with the appropriate modifications, which are within the purview of the ability of a person with ordinary skill in the art. Proteolytic cleavage of the FRET substrate released quenching of fluorescence (excitation 488 nm and emission 590 nm).

BACE1 [8] = target: T1, BACE1; assay: In vitro enzymatic BACE1 FRET assay; assay type: biochemical; conditions: pH 4.5, 1 h pre-incubation, read-out: BACE1 Enzyme IC50
Procedure: as §1, §2
Target sequence in this assay (P56817 46-501): as the sequence (P56817 46-501, species assumed) above

Recombinant CatD, sequence (P07339 65-412): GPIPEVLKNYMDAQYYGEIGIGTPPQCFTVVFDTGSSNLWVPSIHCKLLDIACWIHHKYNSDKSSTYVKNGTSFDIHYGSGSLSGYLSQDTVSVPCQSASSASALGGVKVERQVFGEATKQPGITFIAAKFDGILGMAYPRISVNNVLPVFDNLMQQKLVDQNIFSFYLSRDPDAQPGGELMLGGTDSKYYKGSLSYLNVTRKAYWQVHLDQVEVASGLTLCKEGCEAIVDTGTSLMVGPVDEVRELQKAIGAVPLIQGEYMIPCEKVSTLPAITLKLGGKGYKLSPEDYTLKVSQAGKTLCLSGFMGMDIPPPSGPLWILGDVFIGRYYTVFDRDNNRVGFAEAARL
human recombinant BACE2, sequence (Q9Y5Z0 63-518): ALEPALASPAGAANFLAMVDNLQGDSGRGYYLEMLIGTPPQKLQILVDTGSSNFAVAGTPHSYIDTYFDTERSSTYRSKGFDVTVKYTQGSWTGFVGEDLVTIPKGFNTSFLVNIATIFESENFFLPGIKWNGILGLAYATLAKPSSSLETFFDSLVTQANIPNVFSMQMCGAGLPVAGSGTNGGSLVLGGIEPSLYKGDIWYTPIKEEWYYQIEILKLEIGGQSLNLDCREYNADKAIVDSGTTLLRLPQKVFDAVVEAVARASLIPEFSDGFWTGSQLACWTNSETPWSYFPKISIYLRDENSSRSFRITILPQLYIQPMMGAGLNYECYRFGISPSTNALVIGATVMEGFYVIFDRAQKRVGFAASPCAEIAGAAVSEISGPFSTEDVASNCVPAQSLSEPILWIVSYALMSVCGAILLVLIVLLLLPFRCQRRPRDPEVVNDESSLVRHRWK

SMILES: C[C@@]1(c2cc(-c3cncnc3)c(F)cc2F)CCSC(N)=N1 [LY 2811376]
- eye toxicity finding [1]: damaged the pigment epithelium of the rat's eye

SMILES: C[C@@]1(c2cc(NC(=O)c3ccc(C#N)cn3)ccc2F)C=CSC(N)=N1 [JNJ-54861911]
- ability to cross the blood-brain barrier [2]: demonstrated an ability to cross the blood-brain barrier
- reduction of Aβ peptide concentrations (Aβ peptide in CSF; in vivo): dose-dependently reduce Aβ peptide concentrations
- Aβ peptide reduction in CSF (Aβ peptide in CSF; oral dose of 95 mg once daily): up to 95%

SMILES: CN1C(=N)N[C@](C)(c2cc(NC(=O)c3ccc(F)cn3)ccc2F)CS1(=O)=O [MK-8931]
- safety profile [3]: excellent safety profile with no immediately noticeable side effects
- CSF Aβ peptide concentrations [4]: significantly reduced

SMILES: C[C@H]1OC[C@]2(c3cc(NC(=O)c4cnc(C(F)F)cn4)ccc3F)N=C(N)SC[C@H]12 [Example E2609]
- clinical safety [5]: did not show clinical significant safety concerns
- reduction in Aβ peptide levels in the CSF and plasma [6]: significant reduction

SMILES: CNC(=O)[C@]1(C)C[C@@](C)(c2cc(/C=C(\F)c3ccc(C#N)cn3)ccc2F)N=C(N)S1 [Example 116, (4S,6S)-2-amino-4-(5-((Z)-2-(5-cyanopyridin-2-yl)-2-fluorovinyl)-2-fluorophenyl)-N,4,6-trimethyl-5,6-dihydro-4H-1,3-thiazine-6-carboxamide]
- IC50 (Recombinant CatD): 68.6 µM
- IC50 (BACE1 [7]): 10 nM
- IC50 (human recombinant BACE2): 560 nM
- IC50 (BACE1 [8]): 25 nM

From patent US10889579B2, “Thiazine derivatives as β-secretase inhibitors and methods of use” (AMGEN INC., priority 2016, dated 2021)
